Source: PMC3152597 (Bioorganic & medicinal chemistry, 2011)
“Also recorded” adds a separate entry of the source.

Key:
[1] = test system: two melanoma (A375, WM164) and four prostate cancer cell lines (LNCaP, PC-3, Du 145, PPC-1); test: Antiproliferative activity, all six cancer cell lines together; format: cell-based, human; conditions: for fold decrease in potency compared with parent compound: average IC50 versus parent ABI-I compound (1a, 1c); for IC50: Homo sapiens, read-out: IC50 values (range over the cancer cell lines)
[2] = test system: nonresistant cancer cell lines; test: Antiproliferative activity, nonresistant cancer cell lines; format: cell-based; conditions: Homo sapiens, read-out: potency on nonresistant cancer cell lines (range)
MDR cancer cell lines = test: Antiproliferative activity, MDR cancer cell lines; format: cell-based; conditions: Homo sapiens, read-out: potency on resistant (MDR) cancer cell lines (range)
[3] = In vitro metabolic stability, dog liver microsomes; format: in vitro ADME
Bovine brain tubulin = test: In vitro microtubule polymerization assay; format: biochemical; conditions: after 15 min, absorbance at 340 nm, 37 °C
[4] = In vitro metabolic stability, rat liver microsomes; conditions: 50 µM; LC-MS/MS metabolite identification
[5] = In vitro metabolic stability, human liver microsomes; conditions: 50 µM; LC-MS/MS metabolite identification
[6] = In vitro metabolic stability, mouse liver microsomes; conditions: 50 µM; LC-MS/MS metabolite identification
PC-3-TxR = test: Antiproliferative activity, paclitaxel-resistant PC-3-TxR; format: cell-based, human; conditions: IC50 on PC-3-TxR divided by IC50 on PC-3
DU145-TxR = test: Antiproliferative activity, paclitaxel-resistant DU145-TxR; format: cell-based, human

Structure (SMILES): COc1cc(C(=O)c2c[nH]c(-c3ccc(C)cc3)n2)cc(OC)c1O [2a, (4-Hydroxy-3,5-dimethoxyphenyl)(2-(p-tolyl)-1H-imidazol-4-yl)methanone]
- fold decrease in potency compared with parent compound [1]: 10-to 20 fold

Structure (SMILES): COc1cc(C(=O)c2c[nH]c(-c3ccc(Cl)cc3)n2)cc(OC)c1O [2c, (2-(4-Chlorophenyl)-1H-imidazol-4-yl)(4-hydroxy-3,5-dimethoxyphenyl)methanone]
- fold decrease in potency compared with parent compound [1]: 10-to 20 fold

Structure (SMILES): COc1cc(C(=O)c2cn(Cc3ccccc3)c(-c3ccc(C)cc3)n2)cc(OC)c1OC [3aa, (1-Benzyl-2-(p-tolyl)-1H-imidazol-4-yl)(3,4,5-trimethoxyphenyl)methanone]
- fold decrease in potency compared with parent compound [1]: 90 fold

Structure (SMILES): COc1cc(C(=O)c2cn(C)c(-c3ccc(C)cc3)n2)cc(OC)c1OC [3ab]
- IC50 [2]: 50 to 80 nM
- IC50 (MDR cancer cell lines): 50 to 80 nM
- half-life in dog liver microsomes (in words) ([3]; 0.5 µM compound, 1 mg/mL microsomal protein, 37 °C): slightly longer half-life than that of compound 1a
- metabolic pathway in dog liver microsomes ([3]; 50 µM, LC-MS/MS metabolite identification): Hydroxylation on the para-methyl of the A ring was a major metabolic pathway; also recorded: O-demethylation was a minor metabolic pathway
- inhibition of tubulin polymerization at 20 µM (Bovine brain tubulin): Complete inhibition
- metabolic pathway in rat liver microsomes [4]: N-demethylation represented the major pathway; also recorded: Hydroxylation on the para-methyl of the A ring was a major metabolic pathway; also recorded: O-demethylation was a minor metabolic pathway
- metabolic pathway in human liver microsomes [5]: Hydroxylation on the para-methyl of the A ring was a major metabolic pathway; also recorded: Ketone reduction was only detected in human liver microsomes; also recorded: O-demethylation was a minor metabolic pathway
- metabolic pathway in mouse liver microsomes [6]: Hydroxylation on the para-methyl of the A ring was a major metabolic pathway; also recorded: O-demethylation was a minor metabolic pathway; also recorded: N-demethylation represented the major pathway

Structure (SMILES): COc1cc(C(=O)c2c[nH]c(-c3ccc(Br)cc3)n2)cc(OC)c1OC [8a, (2-(4-Bromophenyl)-1H-imidazol-4-yl)(3,4,5-trimethoxyphenyl)methanone]
- Resistance index (R) PC-3-TxR (PC-3-TxR): ≈ 1
- Resistance index (R) DU145-TxR (DU145-TxR; IC50 on DU145-TxR divided by IC50 on Du145): ≈ 1
- IC50 [2]: 50 to 80 nM
- IC50 (MDR cancer cell lines): 50 to 80 nM
- inhibition of tubulin polymerization at 10 µM (Bovine brain tubulin; 10 µM): Complete inhibition
- inhibition of tubulin polymerization at 20 µM (Bovine brain tubulin): Complete inhibition

Structure (SMILES): COc1cc(C(=O)c2cc3cc(F)ccc3[nH]2)cc(OC)c1OC [12f, (5-Fluoro-1H-indol-2-yl)(3,4,5-trimethoxyphenyl)methanone]
- IC50 [1]: 1000 to 10000 nM

Structure (SMILES): COc1cc(C(=O)c2cc3ccc(Cl)cc3n2C)cc(OC)c1OC [13aa, (6-Chloro-1-methyl-1H-indol-2-yl)(3,4,5-trimethoxyphenyl)methanone]
- IC50 [1]: 1000 to 10000 nM

Structure (SMILES): COc1cc(C(=O)c2cc3ccc(F)cc3n2C)cc(OC)c1OC [13b, (6-Fluoro-1-methyl-1H-indol-2-yl)(3,4,5-trimethoxyphenyl)methanone]
- IC50 [1]: 1000 to 10000 nM

Structure (SMILES): CC(=O)O[C@H]1C(=O)[C@@]2(C)[C@H]([C@H](OC(=O)c3ccccc3)[C@]3(O)C[C@H](OC(=O)[C@H](O)[C@@H](NC(=O)c4ccccc4)c4ccccc4)C(C)=C1C3(C)C)[C@]1(OC(C)=O)CO[C@@H]1C[C@@H]2O [Paclitaxel, reference compound]
- IC50 (DU145-TxR; Homo sapiens, read-out: IC50±SEM DU145-TxR): > 3000 nM
- IC50 (MDR cancer cell lines): > 400 nM
